This is an account of results in patent publication US10676477B2, “Factor XIa macrocycle inhibitors bearing a non-aromatic P2' group” (BRISTOL-MYERS SQUIBB COMPANY, priority 2015, dated 2020).

Where two headings read alike, the source gives them in different places.

For data set [1] the following is noted: rcm bond, DCE, 50.0 °C.
The next data set addresses T1, human Factor XIa (Homo sapiens, UniProt P03951).
T1 construct: purchased Haematologic Technologies
The experiment in a line: Factor XIa enzyme inhibition assay (chromogenic substrate S-2366), Ki. The data set is classed as biochemical. Conditions: purified human Factor XIa, substrate S-2366, pH 7.4. How it is done:
(§1) The effectiveness of compounds of the present invention as inhibitors of the coagulation Factors XIa, VIIa, IXa, Xa, XIIa, plasma kallikrein chymotrypsin, trypsin, or thrombin, can be determined using a relevant purified serine protease, respectively, and an appropriate synthetic substrate. The rate of hydrolysis of the chromogenic or fluorogenic substrate by the relevant serine protease was measured both in the absence and presence of compounds of the present invention. […] A decrease in the rate of absorbance or fluorescence change in the presence of inhibitor is indicative of enzyme inhibition. Such methods are known to one skilled in the art. The results of this assay are expressed as the inhibitory constant, Ki.
Factor XIa determinations were made in 50 mM HEPES buffer at pH 7.4 containing 145 mM NaCl, 5 mM KCl, and 0.1% PEG 8000 (polyethylene glycol; JT Baker or Fisher Scientific). Determinations were made using purified human Factor XIa at a final concentration of 25-200 pM (Haematologic Technologies) and the synthetic substrate S-2366 (pyroGlu-Pro-Arg-pNA; CHROMOGENIX® or AnaSpec) at a concentration of 0.0002-0.001 M.
(§2) The Michaelis constant, Km, for substrate hydrolysis by each protease, was determined at 25° C. or 37° C. in the absence of inhibitor. Values of Ki were determined by allowing the protease to react with the substrate in the presence of the inhibitor. Reactions were allowed to go for periods of 20-180 minutes (depending on the protease) and the velocities (rate of absorbance or fluorescence change versus time) were measured. The following relationships were used to calculate Ki values: (Vmax*S)/(Km+S) (vo−vs)/vs=I/(Ki*(1+S/Km)) for a competitive inhibitor with one binding site; or vs/vo=A+((B−A)/(1+(IC50/(I)^n)); and Ki=IC50/(1+S/Km) for a competitive inhibitor where: […]

The next data set deals with T2, human plasma kallikrein (Homo sapiens, UniProt P03952).
T2 construct: purchased Enzyme Research Laboratories
Kind of data set: Plasma kallikrein enzyme inhibition assay (chromogenic substrate S-2302), Ki. Particulars: purified human plasma kallikrein, substrate S-2302, pH 7.5. In kind it is biochemical. The protocol:
as §1
Plasma kallikrein determinations were made in 0.1 M sodium phosphate buffer at a pH of 7.5 containing 0.1-0.2 M sodium chloride and 0.5% PEG 8000. Determinations were made using purified human plasma kallikrein (Enzyme Research Laboratories) at a final assay concentration of 200 pM and the synthetic substrate S-2302 (H-(D)-Pro-Phe-Arg-pNA; CHROMOGENIX®) at a concentration of 0.00008-0.0004 M.
as §2

T1 sequence (P03951 388-625 limits assumed): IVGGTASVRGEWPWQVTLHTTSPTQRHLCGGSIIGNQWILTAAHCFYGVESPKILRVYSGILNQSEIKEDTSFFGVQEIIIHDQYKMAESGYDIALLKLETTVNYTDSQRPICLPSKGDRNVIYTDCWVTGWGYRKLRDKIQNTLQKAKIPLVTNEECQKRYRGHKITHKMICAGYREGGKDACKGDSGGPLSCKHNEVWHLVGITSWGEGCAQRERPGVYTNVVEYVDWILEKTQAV
T1 sequence (P03951 19-387 partner limits assumed): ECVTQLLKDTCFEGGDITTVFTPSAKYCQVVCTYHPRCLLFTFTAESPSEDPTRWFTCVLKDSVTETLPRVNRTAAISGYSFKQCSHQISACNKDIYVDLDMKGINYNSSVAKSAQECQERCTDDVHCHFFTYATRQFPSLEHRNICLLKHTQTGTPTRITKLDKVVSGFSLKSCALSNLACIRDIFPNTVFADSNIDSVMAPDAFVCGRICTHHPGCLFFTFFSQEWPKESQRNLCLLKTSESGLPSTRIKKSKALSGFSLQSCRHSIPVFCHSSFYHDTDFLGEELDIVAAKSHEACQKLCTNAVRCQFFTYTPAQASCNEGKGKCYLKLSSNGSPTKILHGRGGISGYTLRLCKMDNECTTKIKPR
T2 sequence (P03952 391-638 limits assumed): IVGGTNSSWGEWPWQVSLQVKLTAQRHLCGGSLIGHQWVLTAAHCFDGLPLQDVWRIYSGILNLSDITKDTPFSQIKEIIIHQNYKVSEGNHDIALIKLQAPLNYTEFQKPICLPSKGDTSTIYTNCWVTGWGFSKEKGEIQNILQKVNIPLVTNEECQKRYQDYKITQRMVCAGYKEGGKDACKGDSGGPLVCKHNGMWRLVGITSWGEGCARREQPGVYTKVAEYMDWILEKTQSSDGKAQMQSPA
T2 sequence (P03952 20-390 partner limits assumed): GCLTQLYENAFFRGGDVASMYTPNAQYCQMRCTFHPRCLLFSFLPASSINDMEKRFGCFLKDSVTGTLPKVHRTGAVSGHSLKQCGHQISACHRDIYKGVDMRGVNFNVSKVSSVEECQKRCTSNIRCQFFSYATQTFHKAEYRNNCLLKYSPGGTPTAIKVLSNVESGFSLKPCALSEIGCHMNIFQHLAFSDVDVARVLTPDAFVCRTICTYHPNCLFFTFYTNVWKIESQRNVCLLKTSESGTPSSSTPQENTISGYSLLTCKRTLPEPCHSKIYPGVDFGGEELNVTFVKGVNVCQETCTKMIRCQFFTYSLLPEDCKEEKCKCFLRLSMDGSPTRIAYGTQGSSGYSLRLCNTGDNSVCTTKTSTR

`CC(C)(C)OC(=O)N1CCN2c3cccc(c3)[C@@H](NC(=O)OCc3ccccc3)C/C=C/CCNC(=O)[C@@H]2C1` yielded a ring closure, isolated yield in data set [1] (from C=CCCNC(=O)[C@@H]1CN(C(=O)OC(C)(C)C)CCN1c1cccc([C@H](CC=C)NC(=O)OCc2ccccc2)c1, 13-membered ring, Grubbs II (40 mol%), 7.55 mM, 5.0 h) of 93%. For `CC(C)(C)OC(=O)N1CCN2c3cccc(c3)[C@@H](NC(=O)OCc3ccccc3)C/C=C/CCNC(=O)[C@H]2C1`, in data set [1] (from C=CCCNC(=O)[C@H]1CN(C(=O)OC(C)(C)C)CCN1c1cccc([C@H](CC=C)NC(=O)OCc2ccccc2)c1, 13-membered ring, Grubbs II (20 mol%), 9.78 mM, 5.0 h), the ring closure, isolated yield turned out to be 81%. The compound `CC(C)(C)OC(=O)N1CCN2c3cccc(c3)[C@@H](NC(=O)OCc3ccccc3)C/C=C/CNC(=O)[C@H]2C1` came in with a ring closure, isolated yield in data set [1] (from C=CCNC(=O)[C@H]1CN(C(=O)OC(C)(C)C)CCN1c1cccc([C@H](CC=C)NC(=O)OCc2ccccc2)c1, 12-membered ring, Grubbs II (20 mol%), 9.1 mM, 5.0 h) of 38.6%. Regarding `CC(C)(C)OC(=O)NC[C@H]1Nc2cccc(c2)[C@@H](NC(=O)OCc2ccccc2)C/C=C/CCNC1=O`, in data set [1] (from C=CCCNC(=O)[C@@H](CNC(=O)OC(C)(C)C)Nc1cccc([C@H](CC=C)NC(=O)OCc2ccccc2)c1, 13-membered ring, Grubbs II (20 mol%)/pTsOH.H2O (1 eq), 10.2 mM, 5.0 h), the ring closure, isolated yield is 37%.

For `O=C1CN2c3cccc(c3)[C@@H](NC(=O)OCc3ccccc3)CC=CCCNC(=O)C2CN1` (stereo partly drawn), in data set [1] (from C=CCCNC(=O)C1CNC(=O)CN1c1cccc([C@H](CC=C)NC(=O)OCc2ccccc2)c1, 13-membered ring, Grubbs II (20 mol%), 9.0 mM, 2.5 h), the ring closure, isolated yield came out at 89%. `CC(C)(C)OC(=O)N1CC(=O)N2c3cccc(c3)[C@@H](NC(=O)OCc3ccccc3)CC=CCCNC(=O)[C@H]2C1` (mixture of isomers) displayed a ring closure, isolated yield in data set [1] (from C=CCCNC(=O)[C@H]1CN(C(=O)OC(C)(C)C)CC(=O)N1c1cccc([C@H](CC=C)NC(=O)OCc2ccccc2)c1, 13-membered ring, Grubbs II (30 mol%), 9.54 mM, 2.0 h) of 76%.

With `COC(=O)NCC[C@@H]1Nc2cccc(c2)[C@@H](NC(=O)c2cnn(-c3cccc(Cl)c3F)c2Cl)CCCCCNC1=O` [Example 31, methyl N-{2-[(3S,11S)-11-[5-chloro-1-(3-chloro-2-fluorophenyl)-1H-pyrazole-4-amido]-4-oxo-2,5-diazabicyclo[10.3.1]hexadeca-1(16),12,14-trien-3-yl]ethyl}carbamate, trifluoromethylacetate], the Ki at human Factor XIa is 1830 nM; on human plasma kallikrein, 9490 nM. For `O=C1NCCCC[C@H](n2cnc(-c3c(-n4cc(Cl)nn4)ccc(Cl)c3F)cc2=O)c2cc(F)cc(c2)N2C(=O)CC[C@H]12` [Example 32, (6R,13S)-13-{4-[3-chloro-6-(4-chloro-1H-1,2,3-triazol-1-yl)-2-fluorophenyl]-6-oxo-1,6-dihydropyrimidin-1-yl}-16-fluoro-2,8-diazatricyclo[12.3.1.0^2,6]octadeca-1(18),14,16-triene-3,7-dione] the same measures were 77.5 nM and 5300 nM. For `O=C1NCCCCC[C@H](n2cnc(-c3cc(Cl)ccc3-n3cc(C(F)(F)F)nn3)cc2=O)c2cccc(c2)N2C(=O)CC[C@H]12` [Example 33, (6R,14S)-14-(4-{5-chloro-2-[4-(trifluoromethyl)-1H-1,2,3-triazol-1-yl]phenyl}-6-oxo-1,6-dihydropyrimidin-1-yl)-2,8-diazatricyclo[13.3.1.0^2,6]nonadeca-1(19),15,17-triene-3,7-dione], in that order: 12 nM and 319 nM.

Turning to `O=C1NCCCCC[C@H](n2cnc(-c3c(-n4cc(Cl)nn4)ccc(Cl)c3F)cc2=O)c2cccc(c2)N2C(=O)CC[C@H]12` [Example 34, (6R,14S)-14-{4-[3-chloro-6-(4-chloro-1H-1,2,3-triazol-1-yl)-2-fluorophenyl]-6-oxo-1,6-dihydropyrimidin-1-yl}-2,8-diazatricyclo[13.3.1.0^2,6]nonadeca-1(19),15,17-triene-3,7-dione], the results for the Ki at human Factor XIa and at human plasma kallikrein were 6 nM and 134 nM, respectively.

Consider `O=C1NCCCCC[C@H](n2cnc(-c3c(-n4cc(Cl)nn4)ccc(Cl)c3F)cc2=O)c2cccc(c2)N2C(=O)CC[C@@H]12` [Example 35, (6S,14S)-14-{4-[3-chloro-6-(4-chloro-1H-1,2,3-triazol-1-yl)-2-fluorophenyl]-6-oxo-1,6-dihydropyrimidin-1-yl}-2,8-diazatricyclo[13.3.1.0^2,6]nonadeca-1(19),15,17-triene-3,7-dione], for which the Ki on human Factor XIa amounted to 5170 nM; at human plasma kallikrein, 11100 nM.

Take `O=C1NCCCCC[C@H](n2cnc(-c3cc(Cl)ccc3-n3cc(Cl)nn3)cc2=O)c2cccc(c2)N2CCC[C@H]12` [Example 36, (6R,14S)-14-{4-[5-chloro-2-(4-chloro-1H-1,2,3-triazol-1-yl)phenyl]-6-oxo-1,6-dihydropyrimidin-1-yl}-2,8-diazatricyclo[13.3.1.0^2,6]nonadeca-1(19),15,17-trien-7-one]: the Ki worked out at 8 nM at human Factor XIa and 133 nM on human plasma kallikrein.

Broadly, the Ki is the equilibrium dissociation constant of an inhibitor or competing ligand from its target.
